Results taken from patent US6369059B1, “Tetracyclic derivatives, process of preparation and use” (ICOS Corporation, priority 1994, dated 2002).

Legend:
human recombinant PDE V = target: T1, human recombinant PDE V (Homo sapiens, UniProt O76074); assay: Inhibitory effect on cGMP-PDE (one-step assay adapted from Wells et al.); assay type: biochemical; details: 0.15 μM 8-[H3]-cGMP, 30 minutes incubation, 2% DMSO
T1 construct: purchased ICOS, Seattle USA
Protocol: The enzyme used was a human recombinant PDE V (ICOS, Seattle USA).
Compounds of the invention were dissolved in DMSO finally present at 2% in the assay.

[1] = tested on: Rat aortic smooth muscle cells (RSMC); assay: cGMP level measurements in ANF-stimulated cells; assay type: cell-based; details: 30 minutes at 37° C. with compound, then ANF (100 nM) for 10 minutes, c-GMP by scintillation proximity immunoassay
Protocol: Rat aortic smooth muscle cells (RSMC) prepared according to Chamley et al. in Cell Tissue Res. 177 503-522 (1977) were used between the 10th and 25th passage at confluence in 24-well culture dishes. Culture media was aspirated and replaced with PBS (0.5 ml) containing the compound tested at the appropriate concentration. After 30 minutes at 37° C., particulates guanylate cyclase was stimulated by addition of ANF (100 nM) for 10 minutes. At the end of incubation, the medium was withdrawn and two extractions were performed by addition of 65% ethanol (0.25 ml). The two ethanolic extracts were pooled and evaporated until dryness, using a Speed-vac system. c-GMP was measured after acetylation by scintillation proximity immunoassay ([…]).

Compound	IC50 (human recombinant PDE V) [nM]	EC50 [1] [nM]	melting point [°C]
CN1CC(=O)N2C(Cc3c([nH]c4ccccc34)C2c2ccc(Br)s2)C1=O (stereo not drawn) [Example 52, Cis-2,3,6,7,12,12a-Hexahydro-65-bromo-2-thienyl)-2-methyl-pyrazino[2′,1′:6,1]pyrido[3,4-b]indole-1,4-dione]	20	800	258
O=C1[C@H]2Cc3c([nH]c4ccccc34)[C@@H](c3ccc4c(c3)OCO4)N2C(=O)[C@@H]2CCCN12 [Example 115, (5aR, 12R,14aS)-1,2,3,5,6,11,12,14a-Octahydro-12-(3,4-methylenedioxyphenyl)-pyrrolo[1″,2″:4′,5′]pyrazino[2′,1′:6,1]pyrido[3,4-b]indole-5-1,4-dione]	< 10	400	302 to 304
CCCCN1CC(=O)N2[C@@H](c3ccc(NC(C)=O)cc3)c3[nH]c4ccccc4c3C[C@@H]2C1=O (relative stereo) [Example 99, Cis-2,3,6,7,12,12a-Hexahydro-6-(4-acetamidophenyl)-2-butyl-pyrazino[2′,1′:6,1]pyrido[3,4-b]indole-1,4-dione]	–	–	246
COc1cccc([C@H]2c3[nH]c4ccccc4c3C[C@@H]3C(=O)N(C)CC(=O)N23)c1 (relative stereo) [Example 33, Cis-2,3,6,7,12,12a-Hexahydro-6-(3-methoxyphenyl)-2-methyl-pyrazino[2′,1′:6,1]pyrido[3,4-b]indole-1,4-dione]	–	–	267 to 269
O=C1[C@@H]2Cc3c([nH]c4ccccc34)[C@H](c3ccccc3)N2C(=O)CN1Cc1ccccc1 (relative stereo) [Example 46, Trans-2,3,6,7,12,12a-Hexahydro-2-benzyl-6-phenyl-pyrazino[2′,1′:6,1]pyrido[3,4-b]indole-1,4-dione]	–	–	284
O=C1[C@H]2Cc3c([nH]c4ccccc34)[C@H](c3ccc4c(c3)OCO4)N2C(=O)CN1Cc1ccc(F)cc1 (relative stereo) [Example 24, Cis-2,3,6,7,12,12a-Hexahydro-2-(4-fluorobenzyl)6-(3,4-methylenedioxyphenyl)-pyrazino[2′,1′:6,1]pyrido[3,4-b]indole-1,4-dione]	–	–	281 to 283
CCCCN1CC(=O)N2[C@@H](c3ccc4c(c3)OCO4)c3[nH]c4ccccc4c3C[C@@H]2C1=O (relative stereo) [Example 18, Cis-2,3,6,7,12,12a-Hexahydro-2-butyl-6-(3,4-methylenedioxyphenyl)-pyrazino[2′,1′:6,1]pyrido[3,4-b]indole-1,4-dione]	–	–	241 to 243
CCCCN1CC(=O)N2[C@@H](c3ccccc3)c3[nH]c4ccccc4c3C[C@@H]2C1=O (relative stereo) [Example 44, Cis-2,3,6,7,12,12a-Hexahydro-2-butyl-6-phenyl-pyrazino[2′,1′:6,1]pyrido[3,4-b]indole-1,4-dione]	–	–	243 to 245
O=C1[C@H]2Cc3c([nH]c4ccccc34)[C@H](c3ccc4c(c3)OCO4)N2C(=O)CN1Cc1ccncc1 (relative stereo) [Example 12, Cis-2,3,6,7,12,12a-Hexahydro-2-(4-pyridylmethyl)-6-(3,4-methylenedioxyphenyl)-pyrazino[2′,1′:6,1]pyrido[3,4-b]indole-1,4-dione]	10	150	273 to 274
O=C1[C@H]2Cc3c([nH]c4ccccc34)[C@H](c3ccc4c(c3)OCO4)N2C(=O)CN1CC1CC1 (relative stereo) [Example 20, Cis-2,3,6,7,12,12a-Hexahydro-2-cyclopropylmethyl-6-(3,4-methylenedioxyphenyl)-pyrazino[2′,1′:6,1]pyrido[3,4-b]indole-1,4-dione]	–	–	217 to 218
CCCCN1CC(=O)N2[C@@H](c3ccc(C(F)(F)F)cc3)c3[nH]c4ccccc4c3C[C@@H]2C1=O (relative stereo) [Example 66, Cis-2,3,6,7,12,12a-Hexahydro-2-butyl-6-(4-trifluoromethylphenyl)-pyrazino[2′,1′:6,1]pyrido[3,4-b]indole-1,4-dione]	–	–	155
O=C1[C@H]2Cc3c([nH]c4ccccc34)[C@@H](c3ccc4c(c3)OCO4)N2C(=O)CN1CC1CCCCC1 [Example 83, (6R,12aR)-2,3,6,7,12,12a-Hexahydro-6-(3,4-methylenedioxyphenyl)-2-cyclohexylmethyl-pyrazino[2′,1′:6,1]pyrido[3,4-b]indole-1,4-dione]	–	–	209
CC(C)CN1CC(=O)N2[C@H](c3ccc4c(c3)OCO4)c3[nH]c4ccccc4c3C[C@@H]2C1=O [Example 81, (6R,12aR)-2,3,6,7,12,12a-Hexahydro-2-isobutyl-6-(3,4-methylenedioxyphenyl)-pyrazino[2′,1′:6,1]pyrido[3,4-b]indole-1,4-dione]	–	–	227 to 228
O=C1[C@H]2Cc3c([nH]c4ccccc34)[C@H](c3ccc4c(c3)OCO4)N2C(=O)CN1C1CCCC1 (relative stereo) [Example 21, Cis-2,3,6,7,12,12a-Hexahydro-2-cyclopentyl-6-(3,4-methylenedioxyphenyl)-pyrazino[2′,1′:6,1]pyrido[3,4-b]indole-1,4-dione]	–	–	270
CN1CC(=O)N2[C@@H](c3ccc4ccccc4c3)c3[nH]c4ccccc4c3C[C@@H]2C1=O (relative stereo) [Example 50, Cis-2,3,6,7,12,12a-Hexahydro-2-methyl-6-(2-naphthyl)-pyrazino[2′,1′:6,1]pyrido[3,4-b]indole-1,4-dione]	–	–	> 260
CCCCN1CC(=O)N2[C@@H](c3cccs3)c3[nH]c4ccccc4c3C[C@@H]2C1=O (relative stereo) [Example 51, Cis-2,3,6,7,12,12a-Hexahydro-2-butyl-6-(2-thienyl)-pyrazino[2′,1′:6,1]pyrido[3,4-b]indole-1,4-dione]	–	–	226
Cc1ccc([C@H]2c3[nH]c4ccccc4c3C[C@@H]3C(=O)N(CC4CC4)CC(=O)N23)cc1 (relative stereo) [Example 64, Cis-2,3,6,7,12,12a-Hexahydro-2-cyclopropylmethyl-6-(4-methylphenyl)-pyrazino[2′,1′:6,1]pyrido[3,4-b]indole-1,4-dione]	–	–	194
O=C1[C@H]2Cc3c([nH]c4ccccc34)[C@H](c3ccc4c(c3)OCO4)N2C(=O)CN1C1CC1 (relative stereo) [Example 17, Cis-2,3,6,7,12,12a-Hexahydro-2cyclopropyl-6-(3,4-methylenedioxyphenyl)-pyrazino[2′,1′:6,1]pyrido[3,4-b]indole-1,4-dione]	–	–	290 to 292
COc1ccc([C@@H]2c3[nH]c4ccccc4c3C[C@@H]3C(=O)N(CC4CC4)CC(=O)N23)cc1Cl [Example 87, (6R,12aR)-2,3,6,7,12,12a-Hexahydro-6-(3-chloro-4-methoxyphenyl)-2-cyclopropylmethyl-pyrazino[2′,1′:6,1]pyrido[3,4-b]indole-1,4-dione]	–	–	218 to 219
CCCN1CC(=O)N2[C@@H](c3ccc4c(c3)OCO4)c3[nH]c4ccccc4c3C[C@@H]2C1=O (relative stereo) [Example 15, Cis-2,3,6,7,12,12a-Hexahydro-6-(3,4-methylenedioxyphenyl)-2-propyl-pyrazino[2′,1′:6,1]pyrido[3,4-b]indole-1,4-dione]	–	–	270 to 271
CCCCN1CC(=O)N2[C@@H](c3ccc(Cl)cc3)c3[nH]c4ccccc4c3C[C@@H]2C1=O (relative stereo) [Example 42, Cis-2,3,6,7,12,12a-Hexahydro-2-butyl-6-(4-chlorophenyl)-pyrazino[2′,1′:6,1]pyrido[3,4-b]indole-1,4-dione]	–	–	164 to 166
CCCCN1CC(=O)N2[C@@H](c3ccc(C#N)cc3)c3[nH]c4ccccc4c3C[C@@H]2C1=O (relative stereo) [Example 71, Cis-2,3,6,7,12,12a-Hexahydro-2-butyl-6-(4cyanophenyl)-pyrazino[2′,1′:6,1]pyrido[3,4-b]indole-1,4-dione]	–	–	246
CN1CC(=O)N2[C@@H](c3ccc4c(c3)OCCO4)c3[nH]c4ccccc4c3C[C@@H]2C1=O (relative stereo) [Example 38, Cis-2,3,6,7,12,12a-Hexahydro-6-(3,4-ethylenedioxyphenyl)-2-methyl-pyrazino[2′,1′:6,1]pyrido[3,4-b]indole-1,4-dione]	–	–	303 to 305
O=C1NCC(=O)N2[C@@H](c3ccc4c(c3)OCO4)c3[nH]c4ccccc4c3C[C@H]12 (relative stereo) [Example 4, Cis-2,3,6,7,12,12a-Hexahydro-6-(3,4-methylenedioxyphenyl)-pyrazino[2′,1′:6,1]pyrido[3,4-b]indole-1,4-dione]	–	–	283 to 285
COc1ccc(CN2CC(=O)N3[C@H](c4ccc5c(c4)OCO5)c4[nH]c5ccccc5c4C[C@@H]3C2=O)cc1OC [Example 97, (6R,12aR)-2,3,6,7,12,12a-Hexahydro-2-(3,4-dimethoxybenzyl)-6-(3,4-methylenedioxyphenyl)-pyrazino[2′,1′:6,1]pyrido[3,4-b]indole-1,4-dione]	–	–	224 to 226
CCN1CC(=O)N2[C@H](c3ccc(OC)cc3)c3[nH]c4ccccc4c3C[C@@H]2C1=O [Example 108, (6R,12aR)-2,3,6,7,12,12a-Hexahydro-2-ethyl-6-(4-methoxyphenyl)-pyrazino[2′,1′:6,1]pyrido[3,4-b]indole-1,4-dione]	–	–	277
